Experimental data: patent US20250387409A1, “3-BETA-HYDROXY-3-ALPHA-ETHYL STEROIDS FOR MODULATION OF THE ALPHA-3 SUBTYPE OF THE GABAA RECEPTOR” (priority 2021, published 2025)

Legend:
[1] = target: T1, human α3-β3-γ2L GABAA-receptor subtype (Homo sapiens, UniProt P28472+P34903); assay: Patch clamp (Dynaflow) GABA-mediated current response, HEK-293 cells, α3β3γ2L; assay type: cell-based; settings: for effect on GABA (in words) / effect on GABA response: 1 μM steroid; for activation of the receptor in the absence of GABA / Imax on 100 μM GABA mediated current response: 0.01-10 μM steroid; for activation of the receptor in the absence of GABA: no GABA, data not shown; for Imax on 100 μM GABA mediated current response: from best fit curve
T1 construct: expressed in transfected cells
T1 sequence (P34903 29-492): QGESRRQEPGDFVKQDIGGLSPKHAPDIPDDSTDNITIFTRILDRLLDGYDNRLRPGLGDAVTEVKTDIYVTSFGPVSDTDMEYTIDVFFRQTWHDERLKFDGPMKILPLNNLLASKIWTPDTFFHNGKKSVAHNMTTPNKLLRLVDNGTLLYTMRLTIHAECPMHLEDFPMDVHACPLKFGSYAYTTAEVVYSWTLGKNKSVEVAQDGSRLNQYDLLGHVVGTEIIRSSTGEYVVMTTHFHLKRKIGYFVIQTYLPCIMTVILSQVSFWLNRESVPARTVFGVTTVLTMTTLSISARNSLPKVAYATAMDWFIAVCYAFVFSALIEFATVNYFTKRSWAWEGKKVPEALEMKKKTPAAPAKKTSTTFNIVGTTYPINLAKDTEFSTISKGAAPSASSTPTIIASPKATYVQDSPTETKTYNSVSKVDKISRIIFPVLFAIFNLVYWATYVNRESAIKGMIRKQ
T1 sequence (P28472 26-473): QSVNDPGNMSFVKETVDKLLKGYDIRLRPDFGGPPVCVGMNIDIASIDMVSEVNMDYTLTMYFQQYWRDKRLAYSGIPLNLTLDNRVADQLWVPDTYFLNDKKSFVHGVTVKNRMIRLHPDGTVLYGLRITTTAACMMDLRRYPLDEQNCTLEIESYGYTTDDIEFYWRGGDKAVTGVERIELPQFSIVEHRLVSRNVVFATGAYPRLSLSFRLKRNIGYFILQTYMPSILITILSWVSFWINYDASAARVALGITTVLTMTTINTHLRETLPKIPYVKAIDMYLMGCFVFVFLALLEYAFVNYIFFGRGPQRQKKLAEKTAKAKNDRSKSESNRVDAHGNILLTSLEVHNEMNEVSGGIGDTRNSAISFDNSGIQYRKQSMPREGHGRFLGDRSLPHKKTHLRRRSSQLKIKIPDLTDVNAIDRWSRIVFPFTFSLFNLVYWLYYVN
T1 sequence (P18507 40-475 partner): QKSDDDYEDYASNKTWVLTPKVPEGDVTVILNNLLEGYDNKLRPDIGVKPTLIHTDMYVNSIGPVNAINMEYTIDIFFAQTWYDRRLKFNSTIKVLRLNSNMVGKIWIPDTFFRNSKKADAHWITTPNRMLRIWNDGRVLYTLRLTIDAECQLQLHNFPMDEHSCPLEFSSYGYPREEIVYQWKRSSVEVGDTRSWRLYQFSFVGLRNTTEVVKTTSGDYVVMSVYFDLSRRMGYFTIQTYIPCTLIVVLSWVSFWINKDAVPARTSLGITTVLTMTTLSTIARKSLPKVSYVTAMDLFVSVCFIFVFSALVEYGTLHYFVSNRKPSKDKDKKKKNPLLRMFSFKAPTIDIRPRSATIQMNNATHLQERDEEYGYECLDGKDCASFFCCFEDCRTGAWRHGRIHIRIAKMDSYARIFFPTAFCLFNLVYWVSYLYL
Source text: (§1) In these tests the protocol was optimized to be like the physiological conditions in the synaptic cleft.
(§2) Preparation of cell lines: HEK-293 cells permanently transfected with the human α1-β2-γ2L, α2-β3-γ2S, α3-ββ3-γ2L, α4-β3-δ or α5-β3-γ2L GABAA-receptor subtypes were used. The cell lines permanently expressing a functional human GABAA-receptor was made in following steps. The human GABAA-receptor subunits e.g. α1 (308-1727 NM_000806), β2 (214-1679 NM_000813), γ2L (290-1785 NM_198904), α2, β3, γ2S, α3, α4, δ and α5 including introduced Kozac sequences just before the start codons were subcloned into mammalian expression vectors containing Geneticin, Hygromycin B, and Zeocin resistance, respectively. A HEK-293 cell line stably expressing the three GABAA-receptor subunits was produced by transfection of the subunits, one at a time. The transfection was followed by selection with the appropriate antibiotics, cell separation with the use of subunit specific antibodies and production of single cell colonies. Produced cell lines were analysed with immunocytochemistry for the three GABAA-receptor subunits, followed by selection of a suitable cell line showing, for the GABAA-receptor normal and good reactivity in a patch-clamp analysis (see below) towards GABA and the GAMS THDOC.
(§3) Cell culture: HEK-293 cells, permanently transfected with human α1-β2-γ2L, α2-β3-γ2S, α3-β3-γ2L, α4-β3-δ and α5-β3-γ2L GABAA-receptor subtypes, were seeded at a density of 3×10^4/25 cm^2 in cell binding culture flask. The transfected cells were used for patch-clamp experiments 3 days after seeding. When using the cells for patch-clamp experiments the cells were washed twice with oxygen-bubbled EC-solution (see below). About 5 mL EC was then added and the cells were kept in the incubator for about 15 minutes. After 15 minutes the cells came loose from the bottom of the flask and were separated by carefully sucking couple of times with a Pasteur pipette.
(§4) Dynaflow™ system: Dynaflow™ system with resolve chips was used for all patch-clamp experiments. The resolve chips is made of non-sticky materials. The channel width is 150 μm and the height 50 μm. The well volume is 280 μL. Run time at the flow rate of 26 μL/min is […]. The pump settings were as follow: Omnifix 2 ml syringe with inner diameter of 9.65 mm was used. The syringe pump flow rate of chip was 26 μL/min.
(§5) Steroids and GABA: GABA was dissolved in EC-solution by ultrasound for about 40 minutes to the concentration of 10 mM in room temperature. All steroids were dissolved to the concentration of 6 mM in dimethyl sulfoxide (DMSO). The DMSO concentration was 0.1% in all end-solutions, including the wash solution (EC) and the solution with GABA alone. End-solutions are the solutions added into the wells of the chip.
(§6) Electrophysiology: Patch electrodes were pulled from 1.5 mm O.D., 0.86 mm I.D. borosilicate capillary glass without filament. […] The intracellular solution (IC) comprised of (in mM): 140 Cs-gluconate, 3.0 NaCl, 1.2 MgCl2, 1.0 EGTA, 10 HEPES. pH was adjusted to 7.2 with CsOH. The extracellular (EC) solution used during recordings contained (in mM): 137 NaCl, 5.0 KCl, 1.0 CaCl2), 1.2 MgCl2, 10 HEPES, 10 glucose. pH was adjusted with NaOH to 7.4. After compensating for the liquid junction potential, a steady holding potential of −17 mV was used in all experiments. In physiological conditions the HEK-293 has a resting potential at −40 mV and a low concentration of chloride ions inside the cell. By using the holding potential of-17 mV and the intracellular solution with low chloride ion concentration the chloride ions flux into the cell when the receptors are activated. All experiments were performed at room temperature (21 to 23° C.). The following standard protocol was used for all experiments.
(§7) GABA applications: By using the Dynaflow equipment it is possible to study transfected HEK-293 during almost physiological conditions.

[2] = target: T2, human α4-β3-δ GABAA-receptor subtype (Homo sapiens, UniProt P28472+P48169); assay: Patch clamp (Dynaflow) GABA-mediated current response, HEK-293 cells, α4β3δ; assay type: cell-based; settings: 1 μM steroid
T2 construct: expressed in transfected cells
T2 sequence (P48169 36-554): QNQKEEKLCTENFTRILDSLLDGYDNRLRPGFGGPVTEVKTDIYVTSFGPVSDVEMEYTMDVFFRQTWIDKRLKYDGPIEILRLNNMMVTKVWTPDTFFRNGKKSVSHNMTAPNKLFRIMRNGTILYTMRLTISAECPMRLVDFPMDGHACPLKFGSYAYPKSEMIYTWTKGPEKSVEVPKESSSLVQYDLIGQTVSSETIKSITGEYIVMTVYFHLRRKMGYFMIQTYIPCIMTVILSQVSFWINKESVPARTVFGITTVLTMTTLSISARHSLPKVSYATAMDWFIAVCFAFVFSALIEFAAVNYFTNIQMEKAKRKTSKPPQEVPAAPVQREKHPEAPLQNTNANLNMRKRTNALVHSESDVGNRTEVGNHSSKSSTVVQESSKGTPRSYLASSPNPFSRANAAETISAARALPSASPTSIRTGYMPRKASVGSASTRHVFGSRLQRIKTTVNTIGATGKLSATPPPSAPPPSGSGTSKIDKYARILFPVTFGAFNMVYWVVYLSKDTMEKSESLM
T2 sequence (P28472 26-473): as the sequence (P28472 26-473) above
T2 sequence (O14764 25-452 partner): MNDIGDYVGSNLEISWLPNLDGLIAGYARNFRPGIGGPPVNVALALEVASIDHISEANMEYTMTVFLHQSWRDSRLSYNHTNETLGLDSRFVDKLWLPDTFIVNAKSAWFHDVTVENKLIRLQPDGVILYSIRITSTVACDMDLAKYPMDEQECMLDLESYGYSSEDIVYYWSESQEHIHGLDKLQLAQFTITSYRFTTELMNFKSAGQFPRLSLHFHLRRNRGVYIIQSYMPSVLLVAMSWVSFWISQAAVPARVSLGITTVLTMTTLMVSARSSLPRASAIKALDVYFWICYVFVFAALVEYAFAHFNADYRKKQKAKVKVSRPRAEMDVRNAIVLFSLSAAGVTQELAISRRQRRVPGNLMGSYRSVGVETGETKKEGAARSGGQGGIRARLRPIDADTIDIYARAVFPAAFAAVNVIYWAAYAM
Source text: as §1, §2, §3, §4
as §5, with “chip. […]” for “chip.”

[3] = target: T3, human GABAA-receptor subtype α3β3γ2L (Homo sapiens, UniProt P28472+P34903); assay: Patch clamp (Dynaflow) THDOC enhancement of GABA response, HEK-293 cells, α3β3γ2L; assay type: cell-based; settings: for reduction of THDOC-enhanced GABA effect, Mean ± SEM %: 100 nM THDOC, 100 μM GABA, GABA response subtracted
T3 construct: expressed in transfected cells
T3 sequence (P34903 29-492): as the sequence (P34903 29-492) above
T3 sequence (P28472 26-473): as the sequence (P28472 26-473) above
T3 sequence (P18507 40-475 partner): as the sequence (P18507 40-475 partner) above
Source text: as §1, §2, §3, §4, §5, §6, §7

[4] = system: GABAA-receptors; assay: Patch clamp, steroid alone without GABA present; assay type: cell-based, human
Source text: as §1
as §2, with “THDOC. […]” for “THDOC.”

[5] = target: T4, human α2-β3-γ2S GABAA-receptor subtype (Homo sapiens, UniProt P28472+P47869); assay: Patch clamp (Dynaflow) GABA-mediated current response, HEK-293 cells, α2β3γ2S; assay type: cell-based; settings: 1 μM steroid
T4 construct: expressed in transfected cells
T4 sequence (P47869 29-451): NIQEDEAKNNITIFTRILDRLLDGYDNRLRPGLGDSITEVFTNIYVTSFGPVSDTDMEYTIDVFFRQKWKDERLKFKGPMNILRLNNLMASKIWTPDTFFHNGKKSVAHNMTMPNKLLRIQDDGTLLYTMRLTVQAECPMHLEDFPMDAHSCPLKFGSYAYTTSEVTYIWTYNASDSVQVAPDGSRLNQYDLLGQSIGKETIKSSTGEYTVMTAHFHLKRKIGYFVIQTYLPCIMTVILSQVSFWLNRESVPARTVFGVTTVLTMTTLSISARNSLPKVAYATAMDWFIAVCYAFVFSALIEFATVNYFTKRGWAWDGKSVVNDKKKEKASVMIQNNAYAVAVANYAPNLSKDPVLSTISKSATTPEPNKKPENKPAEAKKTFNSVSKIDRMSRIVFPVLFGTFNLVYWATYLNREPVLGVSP
T4 sequence (P28472 26-473): as the sequence (P28472 26-473) above
T4 sequence (P18507 40-467 isoform P18507-1 partner limits assumed): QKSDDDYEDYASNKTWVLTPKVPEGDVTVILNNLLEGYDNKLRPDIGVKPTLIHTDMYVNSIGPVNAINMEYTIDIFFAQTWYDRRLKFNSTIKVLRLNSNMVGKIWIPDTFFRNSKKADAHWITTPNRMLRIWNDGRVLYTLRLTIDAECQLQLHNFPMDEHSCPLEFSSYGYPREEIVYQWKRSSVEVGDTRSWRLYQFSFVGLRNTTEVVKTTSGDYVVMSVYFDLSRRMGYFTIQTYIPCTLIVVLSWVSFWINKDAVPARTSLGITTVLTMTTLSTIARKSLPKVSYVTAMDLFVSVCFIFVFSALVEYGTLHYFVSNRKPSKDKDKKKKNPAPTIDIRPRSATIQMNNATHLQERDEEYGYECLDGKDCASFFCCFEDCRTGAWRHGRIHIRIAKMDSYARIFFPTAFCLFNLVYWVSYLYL
Source text: as §1, §2, §3, §4
as §5, with “chip. […]” for “chip.”

[6] = target: T5, human α5-β3-γ2L GABAA-receptor subtype (Homo sapiens, UniProt P28472+P31644); assay: Patch clamp (Dynaflow) GABA-mediated current response, HEK-293 cells, α5β3γ2L; assay type: cell-based; settings: 1 μM steroid
T5 construct: expressed in transfected cells
T5 sequence (P31644 32-462): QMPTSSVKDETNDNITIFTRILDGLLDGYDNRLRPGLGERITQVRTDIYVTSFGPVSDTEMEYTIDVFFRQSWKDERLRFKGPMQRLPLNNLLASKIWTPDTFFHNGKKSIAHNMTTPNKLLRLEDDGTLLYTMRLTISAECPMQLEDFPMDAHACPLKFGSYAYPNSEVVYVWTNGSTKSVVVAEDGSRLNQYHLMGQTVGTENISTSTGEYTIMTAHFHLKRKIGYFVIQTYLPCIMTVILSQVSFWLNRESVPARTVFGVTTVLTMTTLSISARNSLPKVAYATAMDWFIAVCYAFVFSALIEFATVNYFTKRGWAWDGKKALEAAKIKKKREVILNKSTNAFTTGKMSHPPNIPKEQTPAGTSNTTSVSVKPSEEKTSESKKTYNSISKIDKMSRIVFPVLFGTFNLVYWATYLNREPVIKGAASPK
T5 sequence (P28472 26-473): as the sequence (P28472 26-473) above
T5 sequence (P18507 40-475 partner): as the sequence (P18507 40-475 partner) above
Source text: as §1, §2, §3, §4
as §5, with “chip. […]” for “chip.”

[7] = target: T6, human α1-β2-γ2L GABAA-receptor subtype (Homo sapiens, UniProt P14867+P47870); assay: Patch clamp (Dynaflow) GABA-mediated current response, HEK-293 cells, α1β2γ2L; assay type: cell-based; settings: 1 μM steroid, α1β2γ2L; for effect on GABA response: mean ± SEM, + enhancement, − reduction
T6 construct: expressed in transfected cells
T6 sequence (P14867 28-456): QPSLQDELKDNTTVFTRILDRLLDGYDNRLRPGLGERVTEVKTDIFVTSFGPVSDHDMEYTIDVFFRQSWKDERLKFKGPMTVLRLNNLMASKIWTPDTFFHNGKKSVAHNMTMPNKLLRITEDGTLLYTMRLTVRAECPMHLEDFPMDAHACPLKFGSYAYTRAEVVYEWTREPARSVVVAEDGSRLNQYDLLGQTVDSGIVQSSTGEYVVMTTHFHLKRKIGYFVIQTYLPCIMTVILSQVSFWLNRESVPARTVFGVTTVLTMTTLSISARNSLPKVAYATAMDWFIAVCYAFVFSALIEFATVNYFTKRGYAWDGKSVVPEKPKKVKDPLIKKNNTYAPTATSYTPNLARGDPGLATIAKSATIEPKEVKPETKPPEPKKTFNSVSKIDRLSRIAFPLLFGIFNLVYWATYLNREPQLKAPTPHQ
T6 sequence (P47870 26-474 isoform P47870-1 limits assumed): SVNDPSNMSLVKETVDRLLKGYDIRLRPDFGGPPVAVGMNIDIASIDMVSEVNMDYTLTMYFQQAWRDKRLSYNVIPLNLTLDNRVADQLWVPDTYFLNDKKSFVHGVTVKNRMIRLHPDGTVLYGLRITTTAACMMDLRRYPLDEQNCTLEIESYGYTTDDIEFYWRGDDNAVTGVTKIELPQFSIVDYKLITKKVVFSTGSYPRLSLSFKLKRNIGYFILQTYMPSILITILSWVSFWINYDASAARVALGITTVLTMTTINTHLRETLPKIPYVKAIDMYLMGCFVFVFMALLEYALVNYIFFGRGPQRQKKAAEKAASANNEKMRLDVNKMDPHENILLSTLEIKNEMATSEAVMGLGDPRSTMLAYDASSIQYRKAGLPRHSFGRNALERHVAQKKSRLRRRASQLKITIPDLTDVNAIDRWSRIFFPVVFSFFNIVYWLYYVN
T6 sequence (P18507 40-475 partner): as the sequence (P18507 40-475 partner) above
Source text: as §1, §2, §3, §4, §5
as §6, with “By using the holding potential of-17 mV and the intracellular solution with low chloride ion concentration the chloride ions flux into the cell when the receptors are activated. All experiments were performed at room temperature (21 to 23° C.). The following standard protocol was used for all experiments.” left out

| SMILES | IC50 [1] [nM] | effect on GABA (in words) ([1]; α3β3γ2L) | effect on GABA response ([1]; α3β3γ2L) [%] | activation of the receptor in the absence of GABA [1] | Imax on 100 μM GABA mediated current response ([1]; α3β3γ2L) [%] | effect on 100 μM GABA response, Mean ± SEM % ([1]; steroid conc. 0.01 μM, α3β3γ2L) | effect on 100 μM GABA response, Mean ± SEM % ([1]; steroid conc. 0.03 μM, α3β3γ2L) | effect on 100 μM GABA response, Mean ± SEM % ([1]; steroid conc. 0.1 μM, α3β3γ2L) | effect on 100 μM GABA response, Mean ± SEM % ([1]; steroid conc. 0.3 μM, α3β3γ2L) | effect on 100 μM GABA response, Mean ± SEM % ([1]; steroid conc. 1 μM, α3β3γ2L) [%] | effect on 100 μM GABA response, Mean ± SEM % ([1]; steroid conc. 3 μM, α3β3γ2L) [%] | effect on 100 μM GABA response, Mean ± SEM % ([1]; steroid conc. 10 μM, α3β3γ2L) [%] | effect on GABA (in words) [2] | effect on GABA response [2] | reduction of THDOC-enhanced GABA effect, Mean ± SEM % ([3]; steroid conc. 0.03 μM) | reduction of THDOC-enhanced GABA effect, Mean ± SEM % ([3]; steroid conc. 0.1 μM) [%] | reduction of THDOC-enhanced GABA effect, Mean ± SEM % ([3]; steroid conc. 0.3 μM) [%] | reduction of THDOC-enhanced GABA effect, Mean ± SEM % ([3]; steroid conc. 1 μM) [%] | reduction of THDOC-enhanced GABA effect, Mean ± SEM % ([3]; steroid conc. 3 μM) [%] | effect on the GABAA-receptors alone without GABA present [4] | other results |
| --- | --- | --- | --- | --- | --- | --- | --- | --- | --- | --- | --- | --- | --- | --- | --- | --- | --- | --- | --- | --- | --- |
| CC[C@]1(O)CC[C@@]2(C)[C@@H](CC[C@@H]3[C@@H]2CC[C@]2(C)C(=O)CC[C@@H]32)C1 [3α-ethyl-3β-hydroxy-5α-androstan-17-one] | 900 | significant antagonistic effect | −38 ± 2.4 | did activate the receptor in the absence of GABA | −77 | +6.6 ± 2.2% | −1.6 ± 0.7% | +4.4 ± 3.0% | −11 ± 0.7% | −39 ± 3.1 | −67 ± 3.0 | −75 ± 3.0 | significant antagonistic effect | −12 ± 2.3% | −4.4 ± 8.5% | −35 ± 8.8 | −72 ± 8.3 | −120 ± 5.6 | −202 ± 13 | no effect | significant reducing effect on 100 μM GABA response ([1]; at 0.3 μM, α3β3γ2L): more than 10%; concentration at which antagonistic effect against GABAs effect is seen ([1]; α3β3γ2L): ≥ 0.3 µM; concentration at which antagonistic effect on THDOC enhancement of GABA is seen ([3]; α3β3γ2L): ≥ 0.1 µM; effect on GABA (in words) [5]: significant antagonistic effect; effect on GABA response [5]: −29 ± 1.3%; effect on GABA (in words) [6]: significant antagonistic effect; effect on GABA response [6]: −38 ± 2.0%; effect on GABA (in words) [7]: significant antagonistic effect; effect on GABA response [7]: −9.3 ± 1.3% |
| CC[C@]1(O)CC[C@@]2(C)[C@@H](CC[C@@H]3[C@@H]2CC[C@]2(C)[C@@H](C(C)=O)CC[C@@H]32)C1 [3α-ethyl-3β-hydroxy-5α-pregnan-20-one] | 1700 | antagonizing effect | −8.5 ± 1.9 | did activate the receptor in the absence of GABA | −47 | +3.7 ± 2.4% | +9.1 ± 4.4% | +1.2 ± 4.2% | +15 ± 4.7% | −8.1 ± 2.7 | −32 ± 4.0 | −46 ± 6.8 | no significant antagonistic or agonistic effect | +6.5 ± 2.5% | +19 ± 7.4% | −7.7 ± 12 | −34 ± 6.7 | −78 ± 8.8 | −141 ± 15 | no effect | significant reducing effect on 100 μM GABA response ([1]; at 3 μM, α3β3γ2L): more than 30%; IC50 [3]: 400 nM; block of the THDOC enhancement ([3]; 3 μM steroid): completely block the THDOC enhancement; effect on THDOC's autonomic opening of the α3β3γ2L GABAA-receptor ([3]; in the range of the vehicle): slight agonistic effect; concentrations at which antagonist against THDOC enhancement of GABA ([3]; α3β3γ2L): above 300 nM; effect on GABA (in words) [5]: no significant antagonistic or agonistic effect; effect on GABA response [5]: +0.6 ± 2.3%; effect on GABA (in words) [6]: no significant antagonistic or agonistic effect; effect on GABA response [6]: +3.2 ± 2.6%; effect on GABA (in words) [7]: agonistic enhancing effect; effect on GABA response [7]: +6.0 ± 2.0% |
